Peptide text beside a SMILES is read from it.
Row | Structure (SMILES) | logP
1 | CC(NNC(=O)COc1ccccc1)c1ccccc1 (centres undefined) | 2.46
2 | COc1ccccc1-c1nc(N)nc(N)n1 | 0.58
3 | COc1ccc(OCC(=O)O)cc1 | 1.23
4 | O=C(O)C1c2ccccc2-c2ccccc21 | 2.8
5 | O=C(O)Cc1ccc(OCCCc2ccccc2)c(Cl)c1 | 3.9
6 | CCNC(=O)c1ccoc1 | 0.72
7 | Clc1ccccc1-c1c(Cl)cccc1Cl | 5.48
8 | CC(C)c1cnc(NS(=O)(=O)c2ccc(N)cc2)nc1 | 1.23
9 | COC(=O)[C@H]1[C@H]2C[C@H]3c4[nH]c5ccccc5c4CCN3C[C@H]2CC[C@@H]1O | 2.54
10 | Clc1cccc(C(Cl)(Cl)Cl)n1 | 3.41
11 | NCCC(N)C(=O)O (centres undefined) | -4.64
12 | N#Cc1cccc(C(=O)O)c1 | 1.48
13 | CCCCNC(=O)Cn1cnc([N+](=O)[O-])n1 | 0.89
14 | Cc1cccs1 | 2.33
15 | O=C([O-])c1ccccc1O.[Na+] | -1.43
16 | Cc1cccc(N)c1 | 1.4
17 | CC(C)=NOCCOC(=O)[C@@H](C)Oc1ccc(Oc2cnc3cc(Cl)ccc3n2)cc1 | 4.6
18 | O=C(O)c1cc(Cl)ccc1[N+](=O)[O-] | 2.13
19 | CN(CCO)N=Nc1ccc(C(N)=O)cc1 | 0.26
20 | CC(=O)c1c[nH]c2ccccc12 | 2.06
21 | COC | 0.1
22 | N#Cc1cnc2ccccc2c1 | 1.57
23 | CCOCC | 0.89
24 | O=C1c2ccccc2Cc2ccccc21 | 3.66

Row | Structure (SMILES) | logP
25 | COP(=O)(NC(C)=O)SC (centres undefined) | -0.85
26 | CC(=O)NC(CCC(=O)O)C(=O)NC(Cc1ccccc1)C(=O)NC(CC(C)C)C(N)=O (stereo not drawn) (Ac-Glu-Phe-Leu-NH2; configuration not given here) | 0.32
27 | O=S(=O)(CCl)c1ccccc1 | 1.24
28 | COc1cc2c(c(OC)c1OC)-c1ccc(O)c(=O)cc1[C@@H](NC(=O)C(F)(F)F)CC2 | 1.82
29 | CNC(=O)Oc1ccccc1C1OCCO1 | 0.67
30 | O=NN(CCCl)C(=O)NC1C(O)CCCC1O (centres undefined) | 0.16
31 | NNP(=O)(Oc1ccccc1)Oc1ccccc1 | 1.51
32 | CCCOC | 1.21
33 | O=[N+]([O-])c1ccsc1 | 1.55
34 | COP(=O)(OC)C(O)C(Cl)(Cl)Cl (centres undefined) | 0.51
35 | CCC[N+](=O)[O-] | 0.87
36 | O=[N+]([O-])c1nccn1C1OC(CI)C(O)C1O (centres undefined) | 0.32
37 | Cc1ccccc1C#N | 2.21
38 | Cc1cc(C#N)ccn1 | 0.81
39 | O=c1cc[nH]c2ccccc12 | 0.58
40 | c1cnc2ccc3ncccc3c2c1 | 2.05
41 | CN(C)C(=O)N(C)N=O | 0.36
42 | CCCCNCCCC | 2.83
43 | CN(C)c1ccc2cccnc2c1 | 2.71
44 | COC(=O)c1cnc([N+](=O)[O-])n1C | 0.51
45 | COc1ccc(C(=O)NN)cc1 | 0.25
46 | c1nc[nH]n1 | -0.58
47 | O=C(COC(=O)c1ccccc1)NC1CCCCC1 | 2.81
48 | CCCCOCCOCCSC#N | 1.68

Row | Structure (SMILES) | logP
49 | COCCOCC1COC(c2ccc(Cl)cc2Cl)(n2cncn2)O1 (centres undefined) | 2.03
50 | CCCC(=O)Nc1ccccc1 | 2.05
51 | COC(=O)c1ccccc1N | 1.88
52 | O=[N+]([O-])c1ccc(Br)cc1 | 2.55
53 | CS(=O)(=O)c1ccccc1 | 0.5
54 | CC(C)(C)c1ccccc1 | 4.11
55 | CC(C)OC(=O)Nc1ccccc1 | 2.6
56 | Cc1cc[nH]c(=O)n1 | -1.45
57 | Cc1nn(C)c(OCC(=O)c2ccccc2)c1C(=O)c1ccc(Cl)cc1Cl | 3.69
58 | C1=C(c2ccccc2)CCCC1 | 4.53
59 | CNn1cc(C(=O)O)c(=O)c2cc(F)c(N3CCN(C)CC3)cc21 | 0.23
60 | O=C(O)c1ccncc1 | 0.32
61 | OCc1ccccn1 | 0.06
62 | Clc1ccc2cc[nH]c2c1 | 3.25
63 | Cc1cc(-c2ccccc2)nnc1NCCN1CCOCC1 | 2.03
64 | CC(=O)Nc1ccc2ncccc2c1 | 1.55
65 | O=[N+]([O-])c1nccn1CC(O)CF (centres undefined) | -0.52
66 | CCn1c(=O)c2nc(-c3ccc(S(=O)(=O)NCCN(C)C)cc3)[nH]c2n(CC)c1=O | 2.57
67 | COc1ccc2nc(N)[nH]c2c1 | 0.57
68 | BrC1CCCCC1 | 3.2
69 | CN(C)N=Nc1cccc(C(F)(F)F)c1 | 3.78
70 | Nc1cnc2ccccc2c1 | 1.63
71 | Cn1ccc(=O)[nH]c1=O | -1.2
72 | CN(C)CCCc1ccco1 | 2.08

Row | Structure (SMILES) | logP
73 | Ic1ccc2ccccc2n1 | 3.04
74 | CC(=O)Nc1ccc(C(=O)O)cc1 | 1.31
75 | CCc1cnc(NS(=O)(=O)c2ccc(N)cc2)nc1 | 0.9
76 | CC(=O)c1cccc(OC(=O)N(C)C)c1 | 1.18
77 | CCNc1nc(NC(C)(C)C)nc(SC(F)F)n1 | 4.57
78 | CCCCc1ccc(S(N)(=O)=O)cc1 | 2.45
79 | O=[N+]([O-])c1ccccc1 | 1.85
80 | CCN(CC)N=Nc1ccc(S(C)(=O)=O)cc1 | 2.6
81 | COc1ccccc1OCC(=O)O | 0.98
82 | CCCCC(CC)CN (centres undefined) | 2.82
83 | CCCC(=O)OC | 1.29
84 | CN1CCC=C1c1cccnc1 | 1.13
85 | CCS(=O)(=O)c1ccc(S(N)(=O)=O)c2ccccc12 | 1.24
86 | COc1ccc(O)cc1 | 1.58
87 | CCOC(=O)C(=Cc1ccccc1F)C(=O)OCC | 3.04
88 | COc1ccccc1NCC(C)=O | 1.49
89 | Cc1ccc2cccc(O)c2n1 | 2.33
90 | CCC(C)c1cc([N+](=O)[O-])cc(C(C)C)c1O (centres undefined) | 4.19
91 | O=C1CCC(=O)N1c1ccccc1F | 0.22
92 | O=S(=O)(c1ccccc1)c1ccccc1 | 2.4
93 | COc1ccc(NS(=O)(=O)c2ccc(N)cc2)nn1 | 0.32
94 | CC(=O)NC(C)C(=O)NC(C)C(=O)NC(C)C(=O)NC(C)(C)C (centres undefined) | -0.51
95 | Brc1ccoc1 | 2.18
96 | CN(C)C(N(C)C)=S(I)c1cccc(F)c1 (centres undefined) | -0.53

Row | Structure (SMILES) | logP
97 | CC1(C)O[C@@H]2C[C@H]3[C@@H]4C[C@H](F)C5=CC(=O)C=C[C@]5(C)[C@@]4(F)[C@@H](O)C[C@]3(C)[C@]2(C(=O)CO)O1 | 2.48
98 | CC(=O)c1ccc([N+](=O)[O-])cc1 | 1.53
99 | CSc1ccccc1 | 2.74
100 | NC(=O)c1cccc2[nH]ccc12 | 0.66
101 | CNC(=O)Oc1ccc(C=O)cc1 | 0.99
102 | COc1cccc(C(N)=O)c1 | 0.85
103 | CN(C)N=Nc1ccccc1C(N)=O | 1.73
104 | CCCCCCCCCCCCCC[n+]1ccccc1.[Br-] | 1.32
105 | Cc1cc(C)c(C)c(C)c1C | 4.56
106 | O=NN1CCCC(O)C1 (centres undefined) | -0.47
107 | CC(C)NCC(O)c1ccc(Cl)c(Cl)c1 (centres undefined) | 3.32
108 | O=C(O)c1ccc(O)c([N+](=O)[O-])c1 | 1.85
109 | CN(C)/N=N/c1ccc2n[nH]cc2c1 | 2.36
110 | CC[C@H](C)C(=O)O[C@H]1C[C@H](O)C=C2C=C[C@H](C)[C@H](CC[C@@H]3C[C@@H](O)CC(=O)O3)[C@H]21 | 2.42
111 | CCC1(C(C)CC(C)O)C(=O)NC(=O)NC1=O (centres undefined) | 0.35
112 | Nc1ccccc1Cl | 1.9
113 | N#Cc1ccco1 | 0.96
114 | CN(C)c1nc(N)nc(N(C)C)n1 | 1.2
115 | CCc1cccc(CC)c1N(COC)C(=O)CCl | 3.52
116 | C=CCSc1ccccc1 | 3.51
117 | Cc1ccccc1C(=O)O | 2.46
118 | COC(=O)CCCCCC(=O)OC | 1.38
119 | CC(C)COC(=O)c1ccccc1C(=O)OCC(C)C | 4.11

Reference: the OPERA property sets (Mansouri et al. 2018)
